The target of experiment [1] is T1, Aldehyde dehydrogenase X, mitochondrial (Homo sapiens, UniProt P30837).
T1 sequence (P30837 whole entry): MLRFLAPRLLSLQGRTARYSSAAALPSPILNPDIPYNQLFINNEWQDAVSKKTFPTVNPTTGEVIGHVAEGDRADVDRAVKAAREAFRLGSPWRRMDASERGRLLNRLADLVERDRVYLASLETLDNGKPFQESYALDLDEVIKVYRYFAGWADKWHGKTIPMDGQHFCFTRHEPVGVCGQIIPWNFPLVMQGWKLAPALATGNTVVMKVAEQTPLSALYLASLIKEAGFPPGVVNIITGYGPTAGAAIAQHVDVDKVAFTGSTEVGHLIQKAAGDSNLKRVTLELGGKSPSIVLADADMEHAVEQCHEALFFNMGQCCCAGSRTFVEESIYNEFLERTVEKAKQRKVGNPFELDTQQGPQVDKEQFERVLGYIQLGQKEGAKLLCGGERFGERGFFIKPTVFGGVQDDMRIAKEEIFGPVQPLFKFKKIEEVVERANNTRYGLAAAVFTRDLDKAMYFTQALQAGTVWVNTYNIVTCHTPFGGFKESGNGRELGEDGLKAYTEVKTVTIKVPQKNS

In experiment [2] the target is T2, Retinaldehyde dehydrogenase 3 (Homo sapiens, UniProt P47895).
T2 sequence (P47895 whole entry): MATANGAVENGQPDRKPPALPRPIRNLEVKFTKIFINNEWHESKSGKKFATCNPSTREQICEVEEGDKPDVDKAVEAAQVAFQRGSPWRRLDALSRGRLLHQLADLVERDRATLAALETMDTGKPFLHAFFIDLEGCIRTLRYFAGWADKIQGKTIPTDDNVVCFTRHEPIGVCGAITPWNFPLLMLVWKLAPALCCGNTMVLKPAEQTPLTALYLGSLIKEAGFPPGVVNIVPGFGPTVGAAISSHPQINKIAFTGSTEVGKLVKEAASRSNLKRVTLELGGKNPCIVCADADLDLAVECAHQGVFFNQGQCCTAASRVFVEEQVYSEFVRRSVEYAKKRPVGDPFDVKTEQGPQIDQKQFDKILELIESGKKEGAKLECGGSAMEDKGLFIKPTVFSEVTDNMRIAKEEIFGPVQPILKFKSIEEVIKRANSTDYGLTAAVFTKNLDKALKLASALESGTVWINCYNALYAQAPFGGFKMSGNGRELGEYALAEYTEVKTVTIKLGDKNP

Another experiment concerns the target T3, Retinal dehydrogenase 2 (Homo sapiens, UniProt O94788).
T3 sequence (O94788 whole entry): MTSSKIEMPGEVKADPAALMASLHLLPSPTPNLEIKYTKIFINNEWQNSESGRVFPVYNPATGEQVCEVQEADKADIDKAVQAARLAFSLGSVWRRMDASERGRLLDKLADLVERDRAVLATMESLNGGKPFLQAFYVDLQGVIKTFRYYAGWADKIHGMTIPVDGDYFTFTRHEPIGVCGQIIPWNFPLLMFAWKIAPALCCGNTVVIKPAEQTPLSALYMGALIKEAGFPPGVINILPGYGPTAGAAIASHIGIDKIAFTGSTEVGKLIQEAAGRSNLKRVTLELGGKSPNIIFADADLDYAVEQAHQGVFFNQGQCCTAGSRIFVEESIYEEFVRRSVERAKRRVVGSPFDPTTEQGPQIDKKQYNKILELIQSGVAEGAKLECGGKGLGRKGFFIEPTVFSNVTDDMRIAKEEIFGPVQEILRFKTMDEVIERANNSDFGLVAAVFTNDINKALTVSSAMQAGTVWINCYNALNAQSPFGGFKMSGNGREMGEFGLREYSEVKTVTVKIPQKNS

For experiment [3], the target named is T4, Retinaldehyde dehydrogenase 3 (Homo sapiens) (UniProt P47895).
T4 sequence (whole entry): T2 sequence (P47895 whole entry)
Kind of experiment: Activation of full length recombinant human ALDH1A3 expressed in Escherichia coli BL21(DE3) preincubated for 2 mins followed by addition of propionaldehyde as substrate in presence of NAD+ by spectrophotometric method relative to control.

Experiment [4] concerns the target T2, Retinaldehyde dehydrogenase 3. Kind of experiment: Activation of full length recombinant human ALDH1A3 expressed in Escherichia coli BL21(DE3) preincubated for 2 mins followed by addition of propionaldehyde as substrate in presence of NAD+ by spectrophotometric method.
Experiment [5] has as its target T5, Aldehyde dehydrogenase X, mitochondrial (Homo sapiens) (UniProt P30837).
T5 sequence (whole entry): T1 sequence (P30837 whole entry)
Kind of experiment: Inhibition of full length recombinant human ALDH1B1 expressed in Escherichia coli TunerDE3 assessed as reduction in dehydrogenase activity by measuring NAD(P)H level preincubated for 2 mins followed by addition of propionaldehyde as substrate in presence of NAD+ by spectrophotometric method relative to control.

Experiment [6] concerns the target T6, Retinal dehydrogenase 2 (Homo sapiens) (UniProt O94788).
T6 sequence (whole entry): T3 sequence (O94788 whole entry)
In words: Inhibition of full length recombinant human ALDH1A2 expressed in Escherichia coli BL21(DE3) assessed as reduction in dehydrogenase activity by measuring NAD(P)H level preincubated for 2 mins followed by addition of propionaldehyde as substrate in presence of NAD+ by spectrophotometric method relative to control.

Experiment [7] deals with T4, Retinaldehyde dehydrogenase 3 (Homo sapiens). In words: Inhibition of full length recombinant human ALDH1A3 expressed in Escherichia coli BL21(DE3) assessed as reduction in dehydrogenase activity by measuring NAD(P)H level preincubated for 2 mins followed by addition of propionaldehyde as substrate in presence of NAD+ by spectrophotometric method relative to control.

Experiment [8] addresses T7, Aldehyde dehydrogenase 1A1 (Homo sapiens, UniProt P00352).
T7 sequence (P00352 whole entry): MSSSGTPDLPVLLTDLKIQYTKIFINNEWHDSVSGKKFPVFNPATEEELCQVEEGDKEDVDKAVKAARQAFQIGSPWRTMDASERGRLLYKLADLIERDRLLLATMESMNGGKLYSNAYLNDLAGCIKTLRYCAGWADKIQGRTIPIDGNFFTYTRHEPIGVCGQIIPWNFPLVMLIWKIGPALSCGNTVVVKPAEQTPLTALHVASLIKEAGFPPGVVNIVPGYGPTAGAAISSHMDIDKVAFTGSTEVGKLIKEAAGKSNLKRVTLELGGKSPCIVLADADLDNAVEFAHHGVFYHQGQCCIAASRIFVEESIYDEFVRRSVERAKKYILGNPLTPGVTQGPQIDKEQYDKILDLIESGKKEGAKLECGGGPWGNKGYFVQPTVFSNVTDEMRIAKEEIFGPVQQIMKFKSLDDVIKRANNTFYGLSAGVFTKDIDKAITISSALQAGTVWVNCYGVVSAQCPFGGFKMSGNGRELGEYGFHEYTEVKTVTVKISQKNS
Kind of experiment: Uncompetitive inhibition of full length recombinant human ALDH1A1 expressed in Escherichia coli BL21(DE3) using propionaldehyde as substrate in presence of varying levels NAD+ by Lineweaver-Burk plot analysis.

For orientation: AC50 means the concentration giving half of the maximal activity seen. As usually defined, the Ki is the dissociation constant of the complex between target and ligand, obtained from inhibition or displacement.

The structures appear in SMILES notation.

With `COC(=O)C(C)Oc1ccc2c(C)cc(=O)oc2c1` (centres undefined), the IC50 entry (in [1]; in experiment [2]; on Retinal dehydrogenase 2) was “Not Active” in each case.
In the case of `C/C(=N\O)c1cc2cc(Br)ccc2oc1=O`, the %max in experiment [3] was 200%. Moreover, the AC50 in [4] is 35 µM. The IC50 entry (in [1]; against Retinal dehydrogenase 2) was “Not Active” each time.
In the case of `Cc1oc2cc3oc(=O)c(C)c(C)c3cc2c1C`, the Imax in [5] and in experiment [6] was 60% in each case.
On to `CCCc1cc(=O)oc2cc3oc(C)c(C)c3cc12`, for which the %max in experiment [3] came out at 200%. Also, the AC50 in [4] is 0.87 µM.
Turning to `Cc1oc2cc3oc(=O)c4c(c3cc2c1C)CCC4`, the Imax in [7] fell in the range of 50 to 60%.
For `Cc1oc2cc3oc(=O)c(CCC(=O)N4CCCCC4)c(C)c3cc2c1C`, the Ki in [8] is 170 nM.
`Cc1oc2cc3oc(=O)c4c(c3cc2c1C)CCCC4`: the IC50 entry in [2] was “Not Active”.

For the origin of these results see ChEMBL document CHEMBL4007427, “Inhibition of the Aldehyde Dehydrogenase 1/2 Family by Psoralen and Coumarin Derivatives” (J Med Chem, 2017).
